Results on three molecules are retold here after US20090239901A1, “METHOD AND COMPOSITIONS FOR TREATMENT OF CEREBRAL MALARIA” (priority 2008, published 2009).

For experiment [1], the system named is Janus kinase 2 (Jak2). Nature of the experiment: attenuation of Compound A effects by Jak2 inhibitor. The settings on record: both in vitro and in vivo. The source says:
(§1) All of these events were reported to be important in the development of Cerebral Malaria (CM).

Experiment [2] has as its system TNF. Nature of the experiment: TNF expression.
Description: as §1

Experiment [3] deals with ICAM-1. The experiment in a line: TNFα-induced production of ICAM-1 in human brain microvascular endothelial cells. In kind it is cell-based. The settings on record: TNF-treated human brain microvascular endothelial cells (MVECs).
Description: as §1

Experiment [4] has as its system VCAM-1. The experiment in a line: TNFα-induced production of VCAM-1 in human brain microvascular endothelial cells. It is filed as cell-based. The settings on record: TNF-treated human brain microvascular endothelial cells (MVECs).
Description: as §1

Experiment [5] deals with hippocampal neurogenesis. The experiment in a line: hippocampal neurogenesis in vivo. The settings on record: 1 week treatment, 2H2O label.
Experiment [6] relates to microglia. Nature of the experiment: LPS-induced microglial inflammation in vivo. The settings on record: LPS 1 mg/kg i.p. on days 1, 3 and 5. On the procedure: Animals were treated with either vehicle and 8% 2H2O label for 1 week. LPS (1 mg/kg, i.p) was injected on days 1, 3 and 5 of drug treatment and label. Microglia were isolated from brain and sorted by flow cytometry as CD11b+, F4/80+ cells. DNA was isolated from sorted microglia cells, hydrolyzed and derivatized for GC/MS analyses.

Experiment [7] has as its system more than 60 receptors and enzymes.
In experiment [8] the test system is sepsis-induced death. The experiment in a line: sepsis-induced death in rodents (survival study). It is filed as in vivo. On the procedure:
FIG. 5 is a graph showing results of a study that indicates α7 agonists can prevent sepsis-induced death in rodents. Survival was monitored daily from day 0 to day 6. In the vehicle control group there was a 13% survival by day 6. In the animals treated with 0.003 mg/kg Compound B, there was a 13% survival by day (NS, p=0.360). In the animals treated with 0.03 mg/kg Compound B, there was also a 13% survival by day (NS, p=0.528). […] Survival was 47% in this group, a significant improvement in survival (p=0.005).

For `N#C/C(=C/c1ccc(O)c(O)c1)C(=O)NCc1ccccc1` [AG-490], the “effect on the effects of Compound A” value in experiment [1] is “attenuates the effects of Compound A”.

With `Cc1ccc(C(=O)N[C@@H]2C3CCN(CC3)[C@H]2Cc2cccnc2)s1` [Compound A, (2S,3R)-N-(2-((3-pyridinyl)methyl)-1-azabicyclo[2.2.2]oct-3-yl)-5-methylthiophene-2-carboxamide], the TNF expression result in experiment [2] is “significantly inhibits TNF expression”. The “levels of ICAM-1 expression” value in experiment [3] is “decreases the levels of ICAM-1 and VCAM-1 expression”. For the same molecule, the “levels of VCAM-1 expression” value in experiment [4] is “decreases the levels of ICAM-1 and VCAM-1 expression”. In addition, the hippocampal neurogenesis result in experiment [5] was “promotes hippocampal neurogenesis in vivo”. For the same molecule, the microglial inflammation result in experiment [6] is “prevents microglial inflammation in vivo”. The “separation with other targets” value in experiment [7] is 100-1000.

With `O=C(N[C@@H]1C2CCN(CC2)[C@H]1Cc1cccnc1)c1cc2ccccc2o1` [Compound B, (2S,3R)-N-(2-((3-pyridinyl)methyl)-1-azabicyclo[2.2.2]oct-3-yl)benzofuran-2-carboxamide], the “survival by day 6” value is on record as 13% in experiment [8] (0.003 mg/kg, NS, p=0.360, vehicle control 13%); 13% in experiment [8] (0.03 mg/kg, NS, p=0.528, vehicle control 13%); 47% in experiment [8] (0.3 mg/kg, p=0.005, vehicle control 13%).
